According to ChEMBL document CHEMBL1137124, “Lysine sulfonamides as novel HIV-protease inhibitors: Nepsilon-disubstituted ureas” (Bioorg Med Chem Lett, 2004):

Tests used:
[1] = molecular target: Human immunodeficiency virus type 1 protease (Human immunodeficiency virus 1, UniProt Q72874); experiment: Inhibition constant for HIV aspartyl protease
[2] = test system: Human immunodeficiency virus; experiment: Effective concentration against wild type HIV virus was determined in anti-viral assay; type: functional, organism-based; settings: Human immunodeficiency virus 1
[3] = test system: Human immunodeficiency virus; experiment: Effective concentration against wild type virus HIV virus was determined in anti-viral assay; type: functional, organism-based; settings: Human immunodeficiency virus 1

| Compound | Ki [1] | EC50 [2] | EC50 [3] |
| --- | --- | --- | --- |
| Cc1ccc(S(=O)(=O)N(CC(C)C)[C@@H](CCCCNC(=O)N(Cc2ccccc2)Cc2ccccc2)C(=O)O)cc1 | 7.2 nM |  |  |
| COc1ccc(CN(Cc2ccc3c(c2)OCO3)C(=O)NCCCC[C@@H](CO)N(CC(C)C)S(=O)(=O)c2ccc(N)cc2)cc1 | 2.2 nM | 500 nM |  |
| CC(C)CN([C@H](CO)CCCCNC(=O)N(Cc1ccccc1)Cc1cccc2c1OCO2)S(=O)(=O)c1ccc(N)cc1 | 5.4 nM | > 10000 nM |  |
| CC(C)CCN([C@H](CO)CCCCNC(=O)N(Cc1ccccc1)Cc1ccccc1)S(=O)(=O)c1ccc(N)cc1 | 5.8 nM |  | > 10000 nM |
| COc1ccc(CN(Cc2ccc3c(c2)OCO3)C(=O)NCCCC[C@@H](CO)N(CCC(C)C)S(=O)(=O)c2ccc(N)cc2)cc1 | 2.9 nM |  | 700 nM |
| CC(C)CCN([C@H](CO)CCCCNC(=S)N(Cc1ccc(F)cc1)Cc1ccc2c(c1)OCCO2)S(=O)(=O)c1ccc(N)cc1 | 9.9 nM |  |  |
| Cc1ccc(S(=O)(=O)N(CC(C)C)[C@@H](CCCCNC(=O)N(Cc2ccccc2)Cc2ccncc2)C(=O)O)cc1 | 3.7 nM |  |  |
| CC(C)CN([C@H](CO)CCCCNC(=O)N(Cc1ccc2c(c1)OCO2)Cc1ccc2c(c1)OCO2)S(=O)(=O)c1ccc(N)cc1 | 1.7 nM | 150 nM |  |
| Cc1ccc(S(=O)(=O)N(CC(C)C)[C@@H](CCCCNC(=O)N(CCc2ccccc2)Cc2ccccc2)C(=O)O)cc1 | > 300 nM |  |  |
| CC(C)CCN([C@H](CO)CCCCNC(=O)N(Cc1ccc(C(F)(F)F)cc1)Cc1ccc2c(c1)OCO2)S(=O)(=O)c1ccc(N)cc1 | 3 nM |  | > 10000 nM |
| CC(C)CN([C@H](CO)CCCCNC(=O)N(Cc1ccc2c(c1)OCO2)Cc1cccs1)S(=O)(=O)c1ccc(N)cc1 | 2 nM | 4000 nM |  |
| CC(C)CN([C@H](CO)CCCCNC(=O)N(Cc1ccccc1)Cc1ccccc1)S(=O)(=O)c1ccc(N)cc1 | 12 nM | 3000 nM |  |
| Cc1ccc(S(=O)(=O)N(CC(C)C)[C@@H](CCCCNC(=O)NCc2ccccn2)C(=O)O)cc1 | > 300 nM |  |  |
| CC(C)CCN([C@H](CO)CCCCNC(=O)N(Cc1ccc([N+](=O)[O-])cc1)Cc1ccc2c(c1)OCO2)S(=O)(=O)c1ccc(N)cc1 | 2.2 nM |  | 845 nM |
| Cc1ccc(S(=O)(=O)N(CC(C)C)[C@H](CO)CCCCNC(=O)N(Cc2ccccc2)Cc2ccccc2)cc1 | 15 nM |  |  |
| Cc1ccc(S(=O)(=O)N(CC(C)C)[C@@H](CCCCNC(=O)NCCc2ccccc2)C(=O)O)cc1 | 204 nM |  |  |
| CC(C)CN([C@H](CO)CCCCNC(=O)N(Cc1ccccc1)Cc1ccc2c(c1)OCO2)S(=O)(=O)c1ccc(N)cc1 | 2.6 nM | 1400 nM |  |
| CC(C)CCN([C@H](CO)CCCCNC(=O)N(Cc1ccc(F)cc1)Cc1ccc2c(c1)OCO2)S(=O)(=O)c1ccc(N)cc1 | 4.9 nM |  | 1200 nM |
| CC(C)CCN([C@H](CO)CCCCNC(=O)N(Cc1ccc2c(c1)OCO2)Cc1cccs1)S(=O)(=O)c1ccc(N)cc1 | 1.4 nM |  | 800 nM |

| Compound | Ki [1] | EC50 [2] | EC50 [3] |
| --- | --- | --- | --- |
| CC(C)CN([C@H](CO)CCCCNC(=O)N(Cc1ccc(F)cc1)Cc1ccc2c(c1)OCO2)S(=O)(=O)c1ccc(N)cc1 | 2 nM | 488 nM |  |
| COc1ccc(CN(Cc2ccc3c(c2)OCO3)C(=O)NCCCC[C@@H](CO)N(CCC(C)C)S(=O)(=O)c2ccc(N)cc2)cc1OC | 3 nM |  |  |
| COc1cccc(CN(Cc2ccc3c(c2)OCO3)C(=O)NCCCC[C@@H](CO)N(CCC(C)C)S(=O)(=O)c2ccc(N)cc2)c1 | 2.2 nM |  |  |
| CC(C)CCN([C@H](CO)CCCCNC(=O)N(Cc1ccc(F)cc1)Cc1ccc2c(c1)OCCO2)S(=O)(=O)c1ccc(N)cc1 | 5.4 nM |  |  |
| COc1cccc(CN(Cc2ccc3c(c2)OCO3)C(=S)NCCCC[C@@H](CO)N(CCC(C)C)S(=O)(=O)c2ccc(N)cc2)c1 | 2.6 nM |  |  |
| CC(C)CN([C@H](CO)CCCCNC(=O)N(Cc1ccsc1)Cc1ccc2c(c1)OCO2)S(=O)(=O)c1ccc(N)cc1 | 6.3 nM | 5000 nM |  |
| CC(C)CN([C@H](CO)CCCCNC(=O)N(Cc1ccccc1)Cc1ccc(F)cc1F)S(=O)(=O)c1ccc(N)cc1 | 12 nM | 3200 nM |  |
| CC(C)CN([C@H](CO)CCCCNC(=O)N(Cc1ccccc1)Cc1cccs1)S(=O)(=O)c1ccc(N)cc1 | 11 nM | 5000 nM |  |
| CC(C)CN([C@H](CO)CCCCNC(=O)N(Cc1ccc(C(F)(F)F)cc1)Cc1ccc2c(c1)OCO2)S(=O)(=O)c1ccc(N)cc1 | 2.5 nM | 1600 nM |  |
| CC(C)CCN([C@H](CO)CCCCNC(=O)N(Cc1ccccc1)Cc1ccc2c(c1)OCO2)S(=O)(=O)c1ccc(N)cc1 | 4.1 nM |  | 871 nM |
| COc1ccc(CN(Cc2ccc3c(c2)OCO3)C(=S)NCCCC[C@@H](CO)N(CCC(C)C)S(=O)(=O)c2ccc(N)cc2)cc1 | 3.6 nM |  |  |
| COc1ccc(CN(Cc2ccc3c(c2)OCO3)C(=S)NCCCC[C@@H](CO)N(CCC(C)C)S(=O)(=O)c2ccc(N)cc2)cc1OC | 2.9 nM |  |  |
| CC(C)CN([C@H](CO)CCCCNC(=O)N(Cc1ccc([N+](=O)[O-])cc1)Cc1ccc2c(c1)OCO2)S(=O)(=O)c1ccc(N)cc1 | 2 nM | 620 nM |  |
| CC(C)CCN([C@H](CO)CCCCNC(=O)N(Cc1ccccc1)Cc1cccc2c1OCO2)S(=O)(=O)c1ccc(N)cc1 | 4 nM |  | > 10000 nM |
| Cc1ccc(S(=O)(=O)N(CC(C)C)[C@@H](CCCCNC(=O)N(Cc2ccccc2)C(C)C)C(=O)O)cc1 | 19 nM |  |  |
| CC(C)CN([C@H](CO)CCCCNC(=O)N(Cc1ccccc1)Cc1ccc(F)cc1)S(=O)(=O)c1ccc(N)cc1 | 3.3 nM | > 10000 nM |  |
| CC(C)CN([C@H](CO)CCCCNC(=O)N(Cc1ccccc1)Cc1cccnc1)S(=O)(=O)c1ccc(N)cc1 | 34 nM | 8500 nM |  |
| CC(C)CN([C@H](CO)CCCCNC(=O)N(Cc1ccccc1)Cc1ccncc1)S(=O)(=O)c1ccc(N)cc1 | 90 nM | > 10000 nM |  |
| Cc1ccc(S(=O)(=O)N(CC(C)C)[C@@H](CCCCNC(=O)N(C(C)C)C(C)C)C(=O)O)cc1 | 300 nM |  |  |
